Results from patent US20210290765A1, “SURFACTANTS FOR HEALTHCARE PRODUCTS” (AdvanSix Resins & Chemicals LLC, priority 2020, published 2021).

What was measured:
Type in all cases: physicochemical
[1] = Critical micelle concentration (CMC) and surface tension versus concentration in water, Wilhelmy plate method; details: for plateau value of minimum surface tension that can be reached / surface tension at the CMC (from the plot) / critical micelle concentration (CMC): 23° C.; for plateau value of minimum surface tension that can be reached / surface tension at the CMC (from the plot): pH=7; for critical micelle concentration (CMC): pH=7, Wilhelmy plate
Excerpt: These properties may be measured and described by various methods. One method by which surfactants may be described is by the molecule's critical micelle concentration (CMC). CMC may be defined as the concentration of a surfactant at which micelles form, and above which all additional surfactant is incorporated into micelles.
As surfactant concentration increases, surface tension decreases. Once the surface is completely overlaid with surfactant molecules, micelles begin to form. This point represents the CMC, as well as the minimum surface tension. Further addition of surfactant will not further affect the surface tension. CMC may therefore be measured by observing the change in surface tension as a function of surfactant concentration. One such method for measuring this value is the Wilhemy plate method. A Wilhelmy plate is usually a thin iridium-platinum plate attached to a balance by a wire and placed perpendicularly to the air-liquid interface. The balance is used to measure the force exerted on the plate by wetting. This value is then used to calculate the surface tension (γ) according to Equation 1: […]
wherein I is equal to the wetted perimeter (2w+2d, in which w and d are the plate thickness and width, respectively) and cos θ, the contact angle between the liquid and the plate, is assumed to be 0 in the absence of an extant literature value.
(§1) Nuclear magnetic resonance (NMR) spectroscopy was performed on a Bruker 500 MHz spectrometer. The critical micelle concentration (CMC) was determined by the Wilhelmy plate method at 23° C. with a tensiometer (DCAT 11, DataPhysics Instruments GmbH) equipped with a Pt—Ir plate. Dynamic surface tension was determined with a bubble pressure tensiometer (Krüss BP100, Krüss GmbH), at 23° C. Contact angle was determined with the optical contact angle goniometer (OCA 15 Pro, DataPhysics GmbH) equipped with a digital camera.

[2] = Dynamic surface tension, bubble pressure tensiometer
Excerpt: Another parameter used to assess the performance of surfactants is dynamic surface tension. The dynamic surface tension is the value of the surface tension for a particular surface or interface age. In the case of liquids with added surfactants, this can differ from the equilibrium value. Immediately after a surface is produced, the surface tension is equal to that of the pure liquid. As described above, surfactants reduce surface tension; therefore, the surface tension drops until an equilibrium value is reached. The time required for equilibrium to be reached depends on the diffusion rate and the adsorption rate of the surfactant.
One method by which dynamic surface tension is measured relies upon a bubble pressure tensiometer. This device measures the maximum internal pressure of a gas bubble that is formed in a liquid by means of a capillary. The measured value corresponds to the surface tension at a certain surface age, the time from the start of the bubble formation to the occurrence of the pressure maximum. The dependence of surface tension on surface age can be measured by varying the speed at which bubbles are produced.
as §1

[3] = Wetting properties: contact angle on solid substrates, optical contact angle goniometer; details: 10x CMC
Excerpt: Surface-active compounds may also be assessed by their wetting ability on solid substrates as measured by the contact angle. When a liquid droplet comes in contact with a solid surface in a third medium, such as air, a three-phase line forms among the liquid, the gas and the solid. The angle between the surface tension unit vector, acting at the three-phase line and tangent at the liquid droplet, and the surface is described as the contact angle. The contact angle (also known as wetting angle) is a measure of the wettability of a solid by a liquid. In the case of complete wetting, the liquid is completely spread over the solid and the contact angle is 0°. Wetting properties are typically measured for a given compound at the concentration of 1-100×CMC, however, it is not a property that is concentration-dependent therefore measurements of wetting properties can be measured at concentrations that are higher or lower.
In one method, an optical contact angle goniometer may be used to measure the contact angle. This device uses a digital camera and software to extract the contact angle by analyze the contour shape of a sessile droplet of liquid on a surface.
as §1

[4] = surface age 1 ms, air-water interface, 23° C.
[5] = substrate Polyethylene terephthalate

| SMILES | plateau value of minimum surface tension that can be reached [1] | surface tension at the CMC (from the plot) [1] | critical micelle concentration (CMC) [1] | dynamic surface tension [2, 4] | CA of Surfactant (contact angle) ([3]; substrate Nylon) [°] | CA of Surfactant (contact angle) [3, 5] [°] | CA of Surfactant (contact angle) ([3]; substrate Polyethylene-HD) [°] | CA of Surfactant (contact angle) ([3]; substrate Teflon) [°] | time in which the compound fully saturated the surface ([2]; air-water interface, 23° C.) | also measured |
| --- | --- | --- | --- | --- | --- | --- | --- | --- | --- | --- |
| CCCCCCCCCCCCOC(=O)CCCCC[N+](C)(C)C.[I-] [Surfactant 1, 6-(dodecyloxy)-N,N,N-trimethyl-6-oxohexan-1-aminium iodide] | about 33 mN/m | about 34 mN/m | about 1 mmol | about 55.5 mN/m | 31.5 | 38.4 | 32 | 67.1 |  | surface tension ([1]; at a concentration of 1.0 mmol or greater): about 33.8 mN/m; dynamic surface tension ([2]; surface age 75 ms, air-water interface, 23° C.): about 39.9 mN/m; dynamic surface tension ([2]; surface age 50,410 ms, air-water interface, 23° C.): about 34 mN/m |
| CCCCCCCCCCCCOC(=O)CCCCCN(C)C.Cl [Surfactant 3, 6-(dodecyloxy)-N,N-dimethyl-6-oxohexan-1-aminium chloride] | about 30 mN/m | ≤ 30 mN/m | about 1.4 mmol | about 50 mN/m | 15 | 18.3 | 42.5 | 66.6 |  | surface tension ([1]; at a concentration of 2.7 mmol or greater): ≤ 33 mN/m; dynamic surface tension ([2]; surface age 100 ms, air-water interface, 23° C.): about 40 mN/m; dynamic surface tension ([2]; surface age 50,000 ms, air-water interface, 23° C.): about 34 mN/m |
| CCCCCCCCCCCCOC(=O)CCCCCN.Cl [Surfactant 5, 6-(dodecyloxy)-6-oxohexan-1-aminium chloride] | about 23 mN/m | about 23 mN/m | about 0.75 mmol |  | 18.2 | 15.3 | 16.6 | 39.3 | approximately 1.5 seconds | surface tension ([1]; at a concentration of 0.7 mmol or greater): ≤ 23.2 mN/m; dynamic surface tension ([2]; surface age of 3185 ms or greater): ≤ 28.5 mN/m |

Continued, in another order:

| plateau value of minimum surface tension that can be reached [1] | surface tension at the CMC (from the plot) [1] | critical micelle concentration (CMC) [1] | dynamic surface tension [2, 4] | CA of Surfactant (contact angle) ([3]; substrate Nylon) [°] | CA of Surfactant (contact angle) [3, 5] [°] | CA of Surfactant (contact angle) ([3]; substrate Polyethylene-HD) [°] | CA of Surfactant (contact angle) ([3]; substrate Teflon) [°] | time in which the compound fully saturated the surface ([2]; air-water interface, 23° C.) | SMILES | also measured |
| --- | --- | --- | --- | --- | --- | --- | --- | --- | --- | --- |
| about 28 mN/m | ≤ 30 mN/m | about 0.08 mmol |  | 21.7 | 24.5 | 39.3 | 57.4 | approximately 7.6 seconds | CCCCCCCCCCCCOC(=O)CCCCC[N+](C)(C)[O-] [Surfactant 2, dodecyl 6-(dimethylamino)hexanoate N-oxide] | surface tension ([1]; at a concentration of 0.08 mmol or greater): ≤ 30 mN/m; dynamic surface tension ([2]; surface age of 4900 ms or greater): ≤ 40 mN/m |
| about 38 mN/m | about 38 mN/m | about 0.1 mmol |  | 25.7 | 35.6 | 46.5 | 62.7 | approximately 1 seconds | CCCCCCCCCCCCOC(=O)CCCCC[N+](C)(C)CCCCS(=O)(=O)[O-] [Surfactant 4, 4-((6-(dodecyloxy)-6-oxohexyl)dimethylammonio)butane-1-sulfonate] | surface tension ([1]; at a concentration of 1 mmol or greater): ≤ 37 mN/m; dynamic surface tension ([2]; surface age of 4000 ms or greater): ≤ 40.5 mN/m |
